Species on record: Rattus norvegicus
Test: Open TG-GATES - Regimen: Daily Repeat
Format: toxicity, organism-based, Sprague-Dawley
Parameters: regimen Daily Repeat, gender Male, age 6 weeks
Details: in vivo, po, 100 mg/kg, route gavage, dose level High; for APTT / Bas / Eos / Fbg / Hb / Ht / Lym / MCH / MCHC / MCV / Mono / Neu / PT / Plat / RBC / Ret / WBC: tissue Blood; for KIDNEY_L / KIDNEY_R / KIDNEY_TOTAL: tissue Kidney; for LIVER: tissue Liver; for A/G / ALP / ALT / AST / BUN / CRE / Ca / Cl / DBIL / GLC / IP / K / LDH / Na / PL / RALB / TBIL / TC / TG / TP / gamma-GTP: tissue Plasma

CCC1(c2ccccc2)C(=O)NC(=O)NC1=O [PHENOBARBITAL]
TERMINAL_BW (72 h, time 3 day): 223.9 g | APTT (72 h, time 3 day): 15.7 s | Bas (72 h, time 3 day): 0% | Eos (72 h, time 3 day): 0.4% | Fbg (72 h, time 3 day): 214.6 mg/dL | Hb (72 h, time 3 day): 13.6 g/dL | Ht (72 h, time 3 day): 40.7% | Lym (72 h, time 3 day): 82.8% | MCH (72 h, time 3 day): 21.9 pg | MCHC (72 h, time 3 day): 33.3% | MCV (72 h, time 3 day): 65.9 fL | Mono (72 h, time 3 day): 6.8% | Neu (72 h, time 3 day): 10% | PT (72 h, time 3 day): 11.4 s | Plat (72 h, time 3 day): 115.9 x10_4/uL | RBC (72 h, time 3 day): 617.6 x10_4/ul | Ret (72 h, time 3 day): 6.6% | WBC (72 h, time 3 day): 159.6 x10_2/uL | KIDNEY_L (72 h, time 3 day): 1 g | KIDNEY_R (72 h, time 3 day): 1 g | KIDNEY_TOTAL (72 h, time 3 day): 2 g | LIVER (72 h, time 3 day): 14.1 g | A/G (72 h, time 3 day): 1.6 | ALP (72 h, time 3 day): 945.6 IU/L | ALT (72 h, time 3 day): 37 IU/L | AST (72 h, time 3 day): 60.6 IU/L | BUN (72 h, time 3 day): 14.2 mg/dL | CRE (72 h, time 3 day): 0.5 mg/dL | Ca (72 h, time 3 day): 10.8 mg/dL | Cl (72 h, time 3 day): 104.6 meq/L | DBIL (72 h, time 3 day): 0.028 mg/dL | GLC (72 h, time 3 day): 188.6 mg/dL | IP (72 h, time 3 day): 8 mg/dL | K (72 h, time 3 day): 5.1 meq/L | LDH (72 h, time 3 day): 112.4 IU/L | Na (72 h, time 3 day): 137.4 meq/L | PL (72 h, time 3 day): 157.2 mg/dL | RALB (72 h, time 3 day): 3.6 g/dL | TBIL (72 h, time 3 day): 0.4 mg/dL | TC (72 h, time 3 day): 82.2 mg/dL | TG (72 h, time 3 day): 118.6 mg/dL | TP (72 h, time 3 day): 5.9 g/dL | gamma-GTP (72 h, time 3 day): 1 IU/L | TERMINAL_BW ([…], time 7 day): 257.9 g | TERMINAL_BW ([…], time 14 day): 304.3 g | TERMINAL_BW ([…], time 28 day): 378.9 g | APTT ([…], time 7 day): 16.7 s | Bas ([…], time 7 day): 0% | Eos ([…], time 7 day): 1% | Fbg ([…], time 7 day): 241.6 mg/dL | Hb ([…], time 7 day): 13.8 g/dL | Ht ([…], time 7 day): 41.4% | Lym ([…], time 7 day): 78.8% | MCH ([…], time 7 day): 22 pg | MCHC ([…], time 7 day): 33.4% | MCV ([…], time 7 day): 66 fL | Mono ([…], time 7 day): 7.4% | Neu ([…], time 7 day): 13% | PT ([…], time 7 day): 11.5 s | Plat ([…], time 7 day): 116.8 x10_4/uL | RBC ([…], time 7 day): 629.6 x10_4/ul | Ret ([…], time 7 day): 7.5% | WBC ([…], time 7 day): 104.3 x10_2/uL | APTT ([…], time 14 day): 17.5 s | Bas ([…], time 14 day): 0% | Eos ([…], time 14 day): 0% | Fbg ([…], time 14 day): 228.6 mg/dL | Hb ([…], time 14 day): 14.7 g/dL | Ht ([…], time 14 day): 43.9% | Lym ([…], time 14 day): 86% | MCH ([…], time 14 day): 20.7 pg | MCHC ([…], time 14 day): 33.4% | MCV ([…], time 14 day): 61.9 fL | Mono ([…], time 14 day): 4.2% | Neu ([…], time 14 day): 9.4% | PT ([…], time 14 day): 11.5 s | Plat ([…], time 14 day): 115.5 x10_4/uL | RBC ([…], time 14 day): 709.4 x10_4/ul | Ret ([…], time 14 day): 5% | WBC ([…], time 14 day): 166 x10_2/uL | APTT ([…], time 28 day): 19.1 s | Bas ([…], time 28 day): 0% | Eos ([…], time 28 day): 0.4% | Fbg ([…], time 28 day): 226.8 mg/dL | Hb ([…], time 28 day): 15.3 g/dL | Ht ([…], time 28 day): 46.1% | Lym ([…], time 28 day): 87.8% | MCH ([…], time 28 day): 19.8 pg | MCHC ([…], time 28 day): 33.2% | MCV ([…], time 28 day): 59.4 fL | Mono ([…], time 28 day): 2.2% | Neu ([…], time 28 day): 9.6% | PT ([…], time 28 day): 12.4 s | Plat ([…], time 28 day): 105.1 x10_4/uL | RBC ([…], time 28 day): 775.6 x10_4/ul | Ret ([…], time 28 day): 3% | WBC ([…], time 28 day): 170.6 x10_2/uL | KIDNEY_L ([…], time 7 day): 1.1 g | KIDNEY_R ([…], time 7 day): 1.1 g | KIDNEY_TOTAL ([…], time 7 day): 2.1 g | KIDNEY_L ([…], time 14 day): 1.2 g | KIDNEY_R ([…], time 14 day): 1.2 g | KIDNEY_TOTAL ([…], time 14 day): 2.4 g | KIDNEY_L ([…], time 28 day): 1.4 g | KIDNEY_R ([…], time 28 day): 1.4 g | KIDNEY_TOTAL ([…], time 28 day): 2.8 g | LIVER ([…], time 7 day): 17.1 g | LIVER ([…], time 14 day): 18.1 g | LIVER ([…], time 28 day): 20.8 g | A/G ([…], time 7 day): 1.5 | ALP ([…], time 7 day): 717.2 IU/L | ALT ([…], time 7 day): 32.6 IU/L | AST ([…], time 7 day): 58.8 IU/L | BUN ([…], time 7 day): 18 mg/dL | CRE ([…], time 7 day): 0.6 mg/dL | Ca ([…], time 7 day): 11 mg/dL | Cl ([…], time 7 day): 106 meq/L | DBIL ([…], time 7 day): 0.054 mg/dL | GLC ([…], time 7 day): 199 mg/dL | IP ([…], time 7 day): 8.1 mg/dL | K ([…], time 7 day): 4.6 meq/L | LDH ([…], time 7 day): 145 IU/L | Na ([…], time 7 day): 140.4 meq/L | PL ([…], time 7 day): 160.2 mg/dL | RALB ([…], time 7 day): 3.8 g/dL | TBIL ([…], time 7 day): 0.4 mg/dL | TC ([…], time 7 day): 88.4 mg/dL | TG ([…], time 7 day): 71.6 mg/dL | TP ([…], time 7 day): 6.2 g/dL | gamma-GTP ([…], time 7 day): 1.6 IU/L | A/G ([…], time 14 day): 1.4 | ALP ([…], time 14 day): 757.4 IU/L | ALT ([…], time 14 day): 32 IU/L | AST ([…], time 14 day): 65.4 IU/L | BUN ([…], time 14 day): 19.4 mg/dL | CRE ([…], time 14 day): 0.6 mg/dL | Ca ([…], time 14 day): 10.7 mg/dL | Cl ([…], time 14 day): 107.2 meq/L | DBIL ([…], time 14 day): 0.004 mg/dL | GLC ([…], time 14 day): 180 mg/dL | IP ([…], time 14 day): 8.4 mg/dL | K ([…], time 14 day): 4.2 meq/L | LDH ([…], time 14 day): 151.2 IU/L | Na ([…], time 14 day): 141.4 meq/L | PL ([…], time 14 day): 156 mg/dL | RALB ([…], time 14 day): 3.9 g/dL | TBIL ([…], time 14 day): 0.4 mg/dL | TC ([…], time 14 day): 91.4 mg/dL | TG ([…], time 14 day): 60.4 mg/dL | TP ([…], time 14 day): 6.5 g/dL | gamma-GTP ([…], time 14 day): 1.4 IU/L | A/G ([…], time 28 day): 1.4 | ALP ([…], time 28 day): 536 IU/L | ALT ([…], time 28 day): 34.6 IU/L | AST ([…], time 28 day): 64.6 IU/L | BUN ([…], time 28 day): 21.2 mg/dL | CRE ([…], time 28 day): 0.4 mg/dL | Ca ([…], time 28 day): 10.7 mg/dL | Cl ([…], time 28 day): 106.2 meq/L | DBIL ([…], time 28 day): 0.014 mg/dL | GLC ([…], time 28 day): 180 mg/dL | IP ([…], time 28 day): 7.7 mg/dL | K ([…], time 28 day): 4.9 meq/L | LDH ([…], time 28 day): 138.8 IU/L | Na ([…], time 28 day): 141.6 meq/L | PL ([…], time 28 day): 144.8 mg/dL | RALB ([…], time 28 day): 4 g/dL | TBIL ([…], time 28 day): 0.4 mg/dL | TC ([…], time 28 day): 79.6 mg/dL | TG ([…], time 28 day): 76.2 mg/dL | TP ([…], time 28 day): 6.8 g/dL | gamma-GTP ([…], time 28 day): 2 IU/L
